Data as given in ChEMBL document CHEMBL1131654 (Bioorg Med Chem Lett, 1998).

Columns and labels:
[1] = biological target: T1, 5-hydroxytryptamine receptor 1B (Homo sapiens, UniProt P28222); assay: In vitro binding affinity was determined towards cloned human 5-hydroxytryptamine 1B receptor using [3H]5-CT radioligand
[2] = biological target: T1, 5-hydroxytryptamine receptor 1B; assay: 5-HT1B agonist potency was evaluated as effective dose that induced hypothermia in the guinea-pig upon intraperitoneal administration; assay type: functional, organism-based; settings: Cavia porcellus; target entry is the homologue from another species
[3] = biological target: T1, 5-hydroxytryptamine receptor 1B; assay: Effective concentration determined by measuring inhibition of forskolin-stimulated c-AMP formation at 5-hydroxytryptamine 1B receptor stably transfected in CHO cell lines; assay type: functional, cell-based
[4] = biological target: T1, 5-hydroxytryptamine receptor 1B; settings: Oryctolagus cuniculus; Saphenous vein
Description: 5-hydroxytryptamine 1B receptor agonist potency determined in rabbit saphenous vein contraction model

[5] = biological target: 5-hydroxytryptamine receptor 1D (Homo sapiens, UniProt P28221); assay: In vitro binding affinity was determined towards cloned human 5-hydroxytryptamine 1D receptor using [3H]5-CT radioligand
[6] = biological target: T1, 5-hydroxytryptamine receptor 1B; assay: 5-hydroxytryptamine 1B receptor agonist potency was evaluated as effective dose that induced hypothermia in the guinea-pig upon intraperitoneal administration; assay type: functional, organism-based; settings: Cavia porcellus; target entry is the homologue from another species
[7] = biological target: T2, 5-hydroxytryptamine receptor 1A (Homo sapiens, UniProt P08908); assay: In vitro binding affinity was determined towards cloned human 5-hydroxytryptamine 1A receptor using [3H]8-OH-DPAT radioligand
T2 sequence (P08908 whole entry): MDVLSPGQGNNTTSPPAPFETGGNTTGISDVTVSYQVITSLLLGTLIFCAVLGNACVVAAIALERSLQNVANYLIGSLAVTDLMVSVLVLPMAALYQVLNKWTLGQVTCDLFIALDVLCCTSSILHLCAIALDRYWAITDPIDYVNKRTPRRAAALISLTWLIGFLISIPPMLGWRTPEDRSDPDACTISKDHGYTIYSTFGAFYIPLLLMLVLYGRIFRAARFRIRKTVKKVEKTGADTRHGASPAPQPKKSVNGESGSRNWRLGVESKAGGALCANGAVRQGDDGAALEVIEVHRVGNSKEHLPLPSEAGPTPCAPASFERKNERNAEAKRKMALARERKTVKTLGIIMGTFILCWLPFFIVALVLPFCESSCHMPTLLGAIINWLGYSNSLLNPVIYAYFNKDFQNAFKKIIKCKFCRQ

T1 sequence (P28222 whole entry): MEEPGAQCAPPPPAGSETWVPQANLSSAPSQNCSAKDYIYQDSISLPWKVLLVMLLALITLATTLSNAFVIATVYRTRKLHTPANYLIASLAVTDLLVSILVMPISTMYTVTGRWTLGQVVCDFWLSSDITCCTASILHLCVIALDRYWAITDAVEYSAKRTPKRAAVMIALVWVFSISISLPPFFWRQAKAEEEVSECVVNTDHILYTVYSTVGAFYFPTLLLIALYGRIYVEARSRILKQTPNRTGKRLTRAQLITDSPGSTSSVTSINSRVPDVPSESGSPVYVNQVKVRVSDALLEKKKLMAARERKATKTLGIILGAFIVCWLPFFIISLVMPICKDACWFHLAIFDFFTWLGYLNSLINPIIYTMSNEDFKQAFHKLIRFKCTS
Chain of 5-hydroxytryptamine receptor 1D (P28221 whole entry): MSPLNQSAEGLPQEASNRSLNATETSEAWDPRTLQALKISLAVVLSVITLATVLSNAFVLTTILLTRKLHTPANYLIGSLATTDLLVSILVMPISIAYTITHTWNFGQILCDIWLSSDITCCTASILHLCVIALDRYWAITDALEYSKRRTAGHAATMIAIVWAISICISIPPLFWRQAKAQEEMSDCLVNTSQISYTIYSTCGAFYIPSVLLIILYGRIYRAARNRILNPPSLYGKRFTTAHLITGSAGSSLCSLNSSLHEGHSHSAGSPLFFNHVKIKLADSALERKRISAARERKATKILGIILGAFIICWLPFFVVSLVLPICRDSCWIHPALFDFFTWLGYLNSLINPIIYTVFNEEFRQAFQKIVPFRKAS

Structure (SMILES): CN(C)CCc1c[nH]c2ccc(C[C@H]3COC(=O)N3)cc12 [ZOLMITRIPTAN]
- Ki [1]: 4.2 nM
- ED50 [2]: 3.2 mg/kg
- EC50 [3]: 15.7 nM
- pD2 [4]: 6.2
- Ki [5]: 0.76 nM

Structure (SMILES): CN(C)CCc1c[nH]c2ccc(CS(=O)(=O)N(C)Cc3ccc(CN(C)S(=O)(=O)Cc4ccc5[nH]cc(CCN(C)C)c5c4)cc3)cc12
- Ki [1]: 0.64 nM
- EC50 [3]: 0.58 nM
- pD2 [4]: 6.6
- Ki [5]: 0.89 nM
- ED50 [6]: 1.3 mg/kg
- Ki [7]: 17.7 nM
